Data: PubChem BioAssay (NCI)
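Briefly, cells in 96-well plates were exposed to five compound concentrations for 48 h, and endpoints were estimated by linear interpolation. Abbreviation: GI50, concentration required for 50% inhibition of growth. TGI: total growth inhibition.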

Key:
Assay in all cases: DTP human tumour cell line panel, 48 h
MCF7 breast = test system: MCF7 breast
NCI/ADR-RES ovarian = test system: NCI/ADR-RES ovarian
NCI-H23 lung = test system: NCI-H23 lung
OVCAR-4 ovarian = test system: OVCAR-4 ovarian
SK-MEL-5 melanoma = test system: SK-MEL-5 melanoma
PC-3 prostate = test system: PC-3 prostate
MDA-MB-231 breast = test system: MDA-MB-231 breast
MALME-3M melanoma = test system: MALME-3M melanoma
SNB-19 CNS = test system: SNB-19 CNS
SK-MEL-28 melanoma = test system: SK-MEL-28 melanoma

SMILES	TGI (MCF7 breast) [µM]	TGI (NCI/ADR-RES ovarian) [µM]	TGI (NCI-H23 lung) [µM]	TGI (OVCAR-4 ovarian) [µM]	TGI (SK-MEL-5 melanoma) [µM]	TGI (PC-3 prostate) [µM]	TGI (MDA-MB-231 breast) [µM]	TGI (MALME-3M melanoma) [µM]	TGI (SNB-19 CNS) [µM]	TGI (SK-MEL-28 melanoma) [µM]	GI50 (MCF7 breast) [µM]	GI50 (NCI/ADR-RES ovarian) [µM]	GI50 (NCI-H23 lung) [µM]	GI50 (OVCAR-4 ovarian) [µM]	GI50 (SK-MEL-5 melanoma) [µM]	GI50 (PC-3 prostate) [µM]	GI50 (MDA-MB-231 breast) [µM]	GI50 (MALME-3M melanoma) [µM]	GI50 (SNB-19 CNS) [µM]	GI50 (SK-MEL-28 melanoma) [µM]
CC1(C)OCN(c2ccc(Cl)cc2)Cn2c1nc1ccccc12	> 100	> 100	> 100	> 100	5.39	> 100	> 100	> 100	> 100	> 100	–	–	–	–	–	–	–	–	–	–
COc1cc2c(cc1C)n(O)c(C)c(C(=O)C/C(=N/NC(=O)C[N+](C)(C)C)C(=O)Nc1cccc(Cl)c1C)[n+]2=O	–	–	> 100	> 100	> 100	–	–	> 100	> 100	> 100	–	–	–	–	–	–	–	–	–	–
Cc1ccc(N2C(=O)/C(=C3\Sc4c(nc(C)[nH]c4=O)N3c3ccccc3)SC2=S)cc1	–	–	56.7	> 100	> 100	–	–	> 100	> 100	> 100	–	–	–	–	–	–	–	–	–	–
COc1ccc(-c2ccc(-c3ccc(C(=N)N)cn3)s2)cc1Cl	3.29	3.84	3.72	3.3	3.32	3.51	3.23	2.9	3.61	3.35	1.52	1.92	1.83	1.61	1.82	1.77	1.62	1.3	1.73	1.72
O=[N+]([O-])c1ccccc1C1N2CCCCC2[C@@H]2c3[nH]c4ccccc4c3CCN12 (stereo partly specified)	–	–	27.5	32.3	26.2	–	–	–	33.4	26.6	–	–	–	–	–	–	–	–	–	–
COc1ccc(O)c2c1C(=O)CCCC2=O	–	–	> 100	> 100	> 100	–	–	> 100	> 100	> 100	–	–	–	–	–	–	–	–	–	–
O=c1c([Se]c2coc3ccccc3c2=O)coc2ccccc12	–	–	29.6	32.6	29.9	–	–	31.8	27.4	30.8	–	–	–	–	–	–	–	–	–	–
CC[C@@H]1OC2(C)CC(S(=O)(=O)c3ccccc3)CC1O2 (stereo partly specified)	–	–	> 100	> 100	> 100	–	–	> 100	> 100	> 100	–	–	–	–	–	–	–	–	–	–
CCS/C(Nc1ccccc1)=C(\C#N)C(=O)Nc1ccc(OC)cc1	> 100	> 100	> 100	> 100	8.19	–	36.5	> 100	> 100	> 100	2.71	2.62	4.9	7.61	2.2	–	4.14	47.3	3.55	15.3
C[Si](C)(C)/C=C/CN1C(=O)CCC1O (stereo unspecified)	–	–	> 100	> 100	> 100	–	–	> 100	> 100	> 100	–	–	–	–	–	–	–	–	–	–
Cc1nc(C(N)=S)sc1C(=O)/C=C/c1cccc(O)c1	–	–	> 100	–	> 100	–	–	> 100	–	> 100	–	–	–	–	–	–	–	–	–	–
FC(F)(F)c1ccc(-c2cnc(Br)nc2NC2CCCCCC2)cc1	> 100	> 100	> 100	> 100	> 100	> 100	> 100	> 100	> 100	> 100	19.7	88.9	32.9	26	29.1	35.4	12.3	> 100	> 100	> 100
C[Se]C(=O)CC1=C2C=C(F)C=CC2/C(=C\c2ccc(S(C)=O)cc2)C1C (stereo unspecified)	10.4	3.96	1.03	7.05	0.266	1.95	0.327	0.4	0.767	0.891	0.152	0.0776	0.065	0.131	0.111	0.174	0.0427	0.156	0.223	0.0343
O=C(/C=C/c1ccco1)Nc1ncc(Cc2ccc(F)cc2)s1	> 100	4.02	> 100	> 100	–	> 100	> 45.4	> 100	> 100	> 100	0.0612	0.0445	0.234	1.22	0.0476	0.0571	0.199	0.249	0.112	3.5
COC(=O)C1=C(C(=O)OC)C2(C(=O)OC)OC1(OC)C(C1(C(=O)OC)C(C(=O)OC)=C1C(=O)OC)=C2C(=O)OC (stereo unspecified)	–	–	> 100	–	> 100	–	–	> 100	> 100	> 100	–	–	–	–	–	–	–	–	–	–
CCN(CC)CCCNC(=O)Cc1ccccc1Nc1c(Cl)cccc1Cl	–	–	32.2	33.1	14.1	–	–	–	31.8	25.4	–	–	–	–	–	–	–	–	–	–
Fc1ccc(-c2ncn(C3CCNCC3)c2-c2ccnc(Oc3cccc(F)c3)n2)cc1	> 20.4	> 25	–	> 25	8.73	> 25	> 25	16.8	> 25	11.6	7.38	> 23.4	–	16.8	4.04	16.5	9.99	6.71	> 25	5.46
COC1=C(OC)CCC(/C(C#N)=C/c2ccc(OC)c(OC)c2)=C1	–	–	> 100	> 100	> 100	–	–	–	–	> 100	–	–	–	–	–	–	–	–	–	–
CCc1cccc(C)c1NC(=O)NS(=O)(=O)c1ccc(C)cc1	–	–	> 100	> 100	> 100	–	–	> 100	> 100	> 100	–	–	–	–	–	–	–	–	–	–
O=[N+]([O-])c1ccc(Cl)c(C2SCc3nc4ccccc4n32)c1 (stereo unspecified)	–	–	> 100	–	30.4	–	–	> 100	> 100	> 100	–	–	–	–	–	–	–	–	–	–
Cn1c(=O)c2[nH]c(COc3ccc(C(C)(C)C)cc3)nc2n(C)c1=O	62.8	60.6	> 100	–	20.6	53.3	> 100	58.8	> 100	> 100	17.1	8.04	5.29	–	4.68	6.11	41.4	18.2	82.3	28.8
COc1cccc(C2C(C(=O)Nc3cc(=O)n(C)c(=O)n3C)=C(C)NC(C)=C2C(=O)Nc2cc(=O)n(C)c(=O)n2C)c1O	–	–	> 100	> 100	> 100	–	–	> 100	> 100	> 100	–	–	–	–	–	–	–	–	–	–

SMILES	TGI (MCF7 breast) [µM]	TGI (NCI/ADR-RES ovarian) [µM]	TGI (NCI-H23 lung) [µM]	TGI (OVCAR-4 ovarian) [µM]	TGI (SK-MEL-5 melanoma) [µM]	TGI (PC-3 prostate) [µM]	TGI (MDA-MB-231 breast) [µM]	TGI (MALME-3M melanoma) [µM]	TGI (SNB-19 CNS) [µM]	TGI (SK-MEL-28 melanoma) [µM]	GI50 (MCF7 breast) [µM]	GI50 (NCI/ADR-RES ovarian) [µM]	GI50 (NCI-H23 lung) [µM]	GI50 (OVCAR-4 ovarian) [µM]	GI50 (SK-MEL-5 melanoma) [µM]	GI50 (PC-3 prostate) [µM]	GI50 (MDA-MB-231 breast) [µM]	GI50 (MALME-3M melanoma) [µM]	GI50 (SNB-19 CNS) [µM]	GI50 (SK-MEL-28 melanoma) [µM]
O=C1C(c2ccccc2)=C(c2ccccc2)C(c2ccc(CCCCCCc3ccc(C4=C(c5ccccc5)C(=O)C(c5ccccc5)=C4c4ccccc4)cc3)cc2)=C1c1ccccc1	–	–	> 100	> 100	> 100	–	–	> 100	> 100	> 100	–	–	–	–	–	–	–	–	–	–
CCOC(=O)C12CC1(C(=O)OCC)C1CCC2C1 (stereo unspecified)	–	–	> 100	> 100	> 100	–	–	> 100	> 100	> 100	–	–	–	–	–	–	–	–	–	–
CC(C)(C)CC(C)(C)c1ccc(OCCOCCSC(=N)N)cc1	3.22	6.61	7.38	3.1	–	7.25	2.94	–	5.58	3.24	1.51	2.59	2.85	1.54	–	2.37	1.34	–	2.17	1.72
CCOC(=O)C(C)(C)Oc1ccc2c(-c3ccc(Cl)cc3)cc(=O)oc2c1	–	–	> 100	> 100	> 100	–	–	> 100	> 100	> 100	–	–	–	–	–	–	–	–	–	–
CN(O)C(=O)Cc1ccccc1	–	–	> 100	> 100	> 100	–	–	> 100	> 100	> 100	–	–	–	–	–	–	–	–	–	–
O=C(/C=C/c1cccc(Cl)c1)c1ccc(Cl)cc1Cl	> 50	21.6	19.3	41.5	17.5	> 50	34.7	–	17.1	26.6	3.49	11.3	10.2	13.4	8.78	15.2	13	–	7.42	9.69
Cc1cc(C)c(C(=O)OC(c2ccccc2)C(c2ccccc2)N2CCOCC2)c(C)c1 (stereo unspecified)	–	–	> 100	–	–	–	–	> 100	> 100	> 100	–	–	–	–	–	–	–	–	–	–
CC1=C2C(c3ccccc3)(c3ccccc3)C3C=CC2(C=N3)N(C(=O)NC2CCCCC2)C1=O (stereo unspecified)	–	–	32.5	31.5	30.5	–	–	31.6	32.9	30.6	–	–	–	–	–	–	–	–	–	–
COc1ccccc1/C=C\c1cc(OC)c(OC)c(OC)c1	–	–	–	> 100	13.5	–	–	> 100	> 100	> 100	–	–	–	–	–	–	–	–	–	–
C=C(C)C1/C=C(/C(C)C)CC[C@]2(C)O[C@@H]2CC[C@H](C)CC1=O (stereo partly specified)	> 100	> 100	> 100	> 100	> 100	> 100	–	> 100	> 100	> 100	50.7	87.4	87	72.4	55	32.4	–	36.1	> 100	> 100
CCNCC(O)c1ccc(N)c([N+](=O)[O-])c1 (stereo unspecified)	> 100	> 100	> 100	> 100	> 100	> 100	> 100	–	> 100	> 100	–	–	–	–	–	–	–	–	–	–
O=c1nc2cc(-c3ccccc3)[nH]c2nn1-c1c(Cl)cc(Cl)cc1Cl	–	–	50.2	–	56.4	–	–	65.7	> 100	> 100	–	–	–	–	–	–	–	–	–	–
O=Nc1c(O)ccc2ccccc12	4.71	9.21	–	2.57	2.85	8.29	10.2	–	28.2	6.6	2.03	2.92	–	1.29	1.46	1.85	2.03	–	14.7	2.8
COc1ccc(C2S/C(=C\c3ccc(OC)cc3OC)C(=O)N2NC(=O)Cc2ccccc2)cc1 (stereo unspecified)	–	–	> 100	> 100	> 100	–	–	> 100	–	–	–	–	–	–	–	–	–	–	–	–
COc1cc(C2C(C(=O)Nc3ccccc3)=C(C)NC(C)=C2C(=O)Nc2ccccc2)ccc1O	–	–	> 100	> 100	–	–	–	> 100	> 100	> 100	–	–	–	–	–	–	–	–	–	–
C=C(C)[C@H]1CC/C(C)=C/CCC(C)C(=O)CC/C(CO)=C\[C@@H]1O (stereo partly specified)	> 100	> 100	> 100	> 100	> 100	> 100	> 100	> 100	–	> 100	> 100	> 100	> 100	20.4	40.7	76.3	> 100	55.3	–	7.9
O=Cc1coc2ccccc2c1=O	45.7	34.9	70.7	43.8	39	53.7	48.4	30.2	70.4	–	–	–	–	–	–	–	–	–	–	–
O=C1C2=C(c3ccccc31)C(c1ccccc1Cl)N1C(=O)CSC1=N2 (stereo unspecified)	–	–	> 100	> 100	> 100	–	–	> 100	> 100	> 100	–	–	–	–	–	–	–	–	–	–
CCC1(CN(C)C)CC/C(=C\c2ccc3c(c2)OCO3)C1=O (stereo unspecified)	–	–	> 100	> 100	> 100	–	–	> 100	> 100	> 100	–	–	–	–	–	–	–	–	–	–
COc1ccc(C(=O)C=C2NCCN2)cc1	–	–	> 100	> 100	> 100	–	–	> 100	> 100	> 100	–	–	–	–	–	–	–	–	–	–
Cc1ccc(Nc2ccc(Nc3ccc(C)cc3)c3c2C(=O)c2c(O)ccc(O)c2C3=O)cc1	–	–	> 100	> 100	> 100	–	–	> 100	> 100	> 100	–	–	–	–	–	–	–	–	–	–
CCC1(OC(C)=O)C(=O)OCc2c1cc1n(c2=O)Cc2cc3ccccc3nc2-1 (stereo unspecified)	–	–	4.6	> 100	4	–	–	> 100	> 100	> 100	–	–	–	–	–	–	–	–	–	–
